Measurements published in patent US7579338B2, “Methods and compositions for treating atheroma, tumors and other neoplastic tissues” (Pharmacyclics, Inc., priority 1999, dated 2009).

Experiments:
MES-SA cells [1] = experiment: Response of MES-SA cells to ionizing radiation, microtiter plate format (MTT); assay type: cell-based, human; details: BSO 0 to 100 μM and higher, data not shown
Method: The response of MES-SA cells to ionizing radiation was studied using the microtiter plate format to confirm radiation sensitization potential. This assay is used to assess rapidly the effects of irradiation under a variety of conditions.
10A. Materials and Methods. MES-SA cells were incubated at 37° C. and allowed to adhere to 96-well microtiter plates (1000 cells per well) overnight in 160 μL McCoys 5A containing 10% FBS (Gibco-BRL) and ca. 2% penicillin/streptomycin solution (Sigma). BSO or media (20 μL) was added, respectively to test and control wells, 24 h prior to irradiation. Metallotexaphyrin complex (up to 100 μM) was added to the test wells to give a final volume of 200 μL, 18-24 h prior to irradiation. Plates were irradiated using a 137Cs irradiator (Model 40 Gammacell, J. L. Shepherd & Assoc., San Fernando, Calif.) at a dose rate of 33.25 Rad/min. A lead brick (2″ diameter) was positioned to protect a column of wells (no. 11) from ionizing radiation. Plate absorbances were normalized to shielded wells to allow plate-to-plate comparison. […] Reversing the position of texaphyrin complex-containing wells had no effect on assay outcome. Medium was exchanged immediately after irradiation, and plates were incubated an additional 120 h prior to analysis for viability using the MTT assay (as described, e.g., in Example 5).

[2] = test system: MES-SA human uterine cells; experiment: Proliferation of MES-SA cells with BSO and GdTex (MTT); assay type: cell-based; details: Homo sapiens, MES-SA; absence of GdTex, highest (50 μM) concentration tested, ca. 72 hours; read-out: inhibitory effect of BSO alone
Method: The proliferation of MES-SA human uterine cells grown in McCoys 5A medium in the presence of a thiol depleting agent (BSO) or GdTex was used to assess the combined effect of these agents. The protocol outlined in the previous example was followed, with the following changes:
1. The serially diluted compound was 200 μM BSO (Sigma Chemical, St. Louis, Mo., catalogue no. G1404).
2. The cells were allowed to incubate in the presence of the two drugs for ca. 72 hours, prior to exchange of media and analysis using the colorimetric (MTT) assay, as described, e.g., in Example 5.

MES-SA cells [3] = experiment: Radiation sensitization by clonogenic assay; assay type: cell-based, human; details: 50 μM GdTex or 100 μM BSO for 24 h prior to irradiation, ascorbate-containing medium
Method: The response of MES-SA cells to ionizing radiation was studied using a clonogenic assay format to confirm radiation sensitization potential.
Materials and Methods. MES-SA cells (200 to 5,000 cells per dish) were plated in T-25 flasks in 8.5 mL McCoys 5A containing 10% FBS (Gibco-BRL) and ca. 2% penicillin/streptomycin solution (Sigma) and incubated at 37° C. overnight. Stock BSO, ascorbate, GdTex (or a control 5% mannitol) solutions were prepared and 0.5 mL of each added to each flask to give a final volume of 10 mL (final concentrations of BSO, ascorbate and GdTex were 100 μM, 5 μM and 50 μM, respectively) and the cells incubated for 24 hr, whereupon the flasks were irradiated using a 137Cs irradiator (Model 40 Gammacell, J. L. Shepherd & Assoc., San Fernando, Calif.) at a dose rate of 0.805 Gy/min. Medium was removed immediately after irradiation, the cells were washed with fresh medium (5.0 mL) followed by the addition of fresh medium (10 mL) and incubation for an additional 11 days. Colonies were fixed and stained with 1% crystal violet and then counted.

[4] = test system: MES-SA human uterine cells; experiment: Proliferation of MES-SA cells with ascorbate and texaphyrin (MTT); assay type: cell-based; details: ascorbate at or below 333 μM, absence of texaphyrin
Method: The proliferation of MES-SA human uterine cells (Harker, W. G.; MacKintosh, F. R.; Sikic, B. I. Cancer Res. 1983, 43, 4943-4950) grown in RPMI-1640 medium in the presence of ascorbate or complex was used to assess the formation of hydrogen peroxide under cell culture conditions.
(§1) 5A. Materials and Methods. MES-SA cells were allowed to adhere to (4) 96-well microtiter plates (4000 cells per well) overnight in 160 μL RPMI medium. Stock ascorbate 3.0 mM in medium (80 μL) was serially diluted (1:3) in rows B through F (discarding the final 80 μL). Row G was used for no-ascorbate control. Stock solutions of GdTex (2 mM in 5% mannitol) diluted in medium and 5% mannitol were prepared and added to the plates to give a final volume of 200 μL in all wells. Columns 2 and 3 contained 100 μM GdTex; columns 4 and 5 contained 75 μM GdTex, columns 6 and 7 contained 50 μM GdTex; columns 8 and 9 contained 25 μM GdTex; and columns 10 and 11 contained no GdTex (all concentrations final). Final mannitol concentration was 0.25% in all wells. The plates were incubated at 37 C under a 5% CO2/95% air atmosphere. Complex-containing medium was exchanged for fresh medium after 5 hours, and plates were incubated an additional 72 hours prior to analysis for viability using the tetrazolium dye, MTT (Mosmann, T. J. Immunol. Methods 1983, 65, 55-63). In brief, 20 μL MTT dye (Sigma Chemical, St. Louis, Mo., catalogue no. M 2128, 5 mg/mL solution in phosphate buffered saline) was added to cells in media to give a final volume of 200 μL. The plates were incubated at 37° C. for ca. 2 hours, whereupon the media was removed and isopropyl alcohol (100 μL/well) was added. Plates were vortexed for ca. 3 minutes to dissolve MTT formazan, then read on a microplate reader at 560-650 nm. Plate absorbances were normalized to wells containing neither ascorbate nor GdTex to allow plate to plate comparison. Data for each concentration of GdTex and ascorbate is the average of eight wells.
The proliferation of MES-SA human uterine cells grown in RPMI-1640 medium in the presence of ascorbate and LuTex was used to assess the production of hydrogen peroxide under cell culture conditions following the protocol outlined in the previous example.

[5] = test system: EMT-6 mouse mammary sarcoma cells; experiment: Proliferation of EMT-6 cells with NADPH and texaphyrin (MTT); assay type: cell-based; details: NADPH at or below 1000 μM, absence of texaphyrin
Method: as §1
The proliferation of EMT-6 mouse mammary sarcoma (Rockwell, S. C., et al., J. Natl. Cancer Inst. 1972, 49, 735-749) cells grown in RPMI-1640 medium in the presence of NADPH and motexafin lutetium was used to assess the production of hydrogen peroxide under cell culture conditions following the protocol outlined in the previous example.
The proliferation of EMT-6 mouse mammary sarcoma (Rockwell, S. C., et al., J. Natl. Cancer Inst. 1972, 49, 735-749) cells grown in RPMI-1640 medium in the presence of NADPH and GdTex was used to assess the production of hydrogen peroxide under cell culture conditions following the protocol outlined in the previous example.

With CCCCS(=N)(=O)CC[C@H](N)C(=O)O (stereo partly drawn) [BSO, L-Buthionine-[S,R]-Sulfoximine, reference compound] the “effect of BSO on GdTex radiation sensitization” value (MES-SA cells [1]) was “dose-dependent from 0 to 100 μM, and leveled off at higher BSO concentrations”, the inhibition at 50 µM [2] was roughly 10% and the “effect on clonogenic survival as a function of radiation, single agent” value (MES-SA cells [3]) was “relatively small effect on clonogenic survival”.

For O=C1O[C@H]([C@@H](O)CO)C(O)=C1O [Ascorbate, ascorbic acid, reference compound], the “inhibitory effect on cell proliferation, ascorbate alone” value [4] was “no inhibitory effect”.

For NC(=O)C1=CN([C@@H]2O[C@H](COP(=O)(O)OP(=O)(O)OC[C@H]3O[C@@H](n4cnc5c(N)ncnc54)[C@H](OP(=O)(O)O)[C@@H]3O)[C@@H](O)[C@H]2O)C=CC1 [NADPH, reference compound], the “inhibitory effect on cell proliferation, NADPH alone” value [5] was “no inhibitory effect”.
